Data from US20170313669A1, “LACTONE COMPOUNDS AND METHODS OF MAKING AND USING SAME” (THE SCRIPPS RESEARCH INSTITUTE, priority 2015, published 2017).

How the values were obtained:
[1] = molecular target: T1, mouse ABHD16A (Mus musculus, UniProt Q9Z1Q2); experiment: PS substrate assay, mouse ABHD16A-transfected HEK293T proteome; type: biochemical; conditions: 30 min, 37° C.; C18:0/C18:2 PS 100 μM; read-out: IC50, PS-lipase activity
T1 construct: full-length cDNA of human ABHD16A (Open Biosystems Catalog # MHS6278-202758315) or murine ABHD16A (Open Biosystems Catalog # MMM1013-202760516); host or cells: HEK293T, transient, pCMV-SPORT6
T1 sequence (Q9Z1Q2 1-558): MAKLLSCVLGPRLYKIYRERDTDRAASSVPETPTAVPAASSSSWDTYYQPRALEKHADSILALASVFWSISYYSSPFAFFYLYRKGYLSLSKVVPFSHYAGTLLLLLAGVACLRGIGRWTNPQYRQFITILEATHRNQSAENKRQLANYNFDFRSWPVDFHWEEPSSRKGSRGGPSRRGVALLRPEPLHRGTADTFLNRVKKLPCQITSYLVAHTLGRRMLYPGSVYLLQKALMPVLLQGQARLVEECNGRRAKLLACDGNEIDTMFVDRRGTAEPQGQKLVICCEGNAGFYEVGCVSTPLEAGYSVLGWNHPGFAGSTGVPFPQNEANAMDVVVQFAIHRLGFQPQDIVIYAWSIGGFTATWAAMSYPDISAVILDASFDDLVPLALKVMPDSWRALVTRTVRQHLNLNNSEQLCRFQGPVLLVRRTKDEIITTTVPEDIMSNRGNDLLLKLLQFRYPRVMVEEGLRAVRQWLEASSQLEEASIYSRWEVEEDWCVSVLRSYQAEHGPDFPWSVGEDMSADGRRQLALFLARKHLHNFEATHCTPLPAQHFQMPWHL

[2] = system: COLO205 cells; experiment: LC-MS lipid profiling of treated cells; type: cell-based, human; conditions: 1 μM, 4 h
Method: ABHD16A^+/+, ABHD16A^+/+, and ABHD16A^−/− littermates of 10 weeks age were anaesthetized by isoflurane and killed by decapitation. The tissues (brains were sliced laterally into two hemispheres; entire spinal cord) were harvested, weighed, and immediately submerged in liquid N2. Tissues (one half brain or entire spinal cord) were then Dounce-homogenized in 8 mL of 2:1:1 (vol/vol/vol) CHCl3: MeOH: PBS containing the internal standard mix (1 nmol 17:1 FFA, and 100 pmol each of 17:1 lyso-PS, 17:0-20:4 PS, 17:1 lyso-PC, 17:0-20:4 PC, 17:0-20:4 PE and 50 pmol of 2-AG-d5). Homogenates were transferred to a glass vial and centrifuged at 2800×g for 10 minutes to separate the two phases. The organic phase (bottom) was removed, 200 μL of formic acid was added to acidify the aqueous homogenate (to enhance extraction of phospholipids), and CHCl3 was added to make up 8 mL volume. The mixture was vortexed, and separated using centrifugation described above. Both the organic extracts were pooled, and dried under a stream of N2. The metabolomes were then re-solubilized in 120 μL of 2:1 (vol/vol) CHCl3: MeOH, and 10 μL were used for the targeted LC-MS analysis. For cellular and secreted metabolomics studies, serum free phenol red free RPMI 1640 media was used to prevent any promiscuous contributions from serum lipids. For the cellular metabolomics studies, 3×10^6 cells were used for all cancer cell lines (COLO205, K562, and MCF7) and lymphoblast cell lines (LCLs), and 2×10^6 cells were used for thioglycollate-elicited peritoneal macrophages. […]
All the metabolites analyzed in this study were quantified using the multiple reaction monitoring (MRM) methods the targeted LC/MS analysis was done using an Agilent Technologies 6460 Triple Quad LC/M with an Agilent Technologies 1290 Infinity series quaternary pump. All data was collected using the LC/MS Data Acquisition mode of the Mass Hunter Workstation Software version B.05.00 build 5.0.5027.0 SP, and analyzed using the Quantitative Analysis mode of the same software. […]

[3] = molecular target: PS lipase activity of mouse peritoneal macrophages (Mus musculus, UniProt Q9Z1Q2); experiment: PS lipase activity of peritoneal macrophage membrane proteomes; conditions: LPS-stimulated macrophages; 1 μM, 30 min, 37° C.
[4] = system: serine hydrolases; experiment: Gel-based ABPP in K562, off-targets; type: cell-based, human
Method: The K562 cell line was treated with varying concentrations of KC01 for 4 h and the cell membrane fractions analyzed by gel-based ABPP. More specifically, the membrane proteome of K562 cells (left gel, FIG. 9) or cultured K562 cells (right gel, FIG. 9) were treated with the indicated concentrations of KC01 (in vitro: 1 mg/mL proteome; 30 min treatment, 37° C.; in situ: 2×10^6 cells; 4 h treatment, 37° C.), followed by FP-rhodamine (added in vitro to cell proteomes at 2 μM for 30 min, 37° C.) and analyzed by gel-based ABPP. Estimated in vitro and in situ IC50 values for KC01 from the gel-based ABPP experiments were 0.2-0.5 μM. Gel-based ABPP experiments were performed in triplicate with consistent results.

Question: For `CCCCCCCCCCCCCC1OC(=O)/C1=C\CCCCC(N)=O` (stereo not drawn) [KC01, (Z)-6-(2-oxo-4-tridecyloxetan-3-ylidene)hexanamide], which IC50 [1] is on record?
Answer: 520 ± 70 nM

Question: And the “other lipids (PSs, PCs, PEs, lyso-PCs, lyso-PEs, MAGs)” value [2]?
Answer: No changes

Question: What about the “secreted lyso-PSs (18:1 and 18:0)” value ([2]; serum-free media) of the same molecule?
Answer: decreased

Question: And the “cellular lyso-PSs” value ([2]; vs DMSO)?
Answer: significant reductions in all detected cellular lyso-PSs

Question: What about the PS lipase activity [3] of the same molecule?
Answer: blocked

Question: What about the off-targets detected [4] of the same molecule?
Answer: Very few off-targets
